In patent publication US4496580A, “Oxothienobenzoxepins” (Hoechst-Roussel Pharmaceuticals Inc., priority 1981, dated 1985):

Experiments:
Format in all cases: in vivo
[1] = tested on: 2-phenyl-1,4-benzoquinone-induced writhing; test: 2-phenyl-1,4-benzoquinone-induced writhing test in mice (PQW); settings: for ED50: Mus musculus, PQW, mice, analgesic
Excerpt: (The phenylquinone-induced writhing test is hereinafter referred to as PQW).

[2] = tested on: carrageenan-induced rat paw edema; test: carrageenan-induced rat paw edema antiinflammatory assay (CPE); settings: for ED50: CPE, rat, antiinflammatory
Excerpt: (The carrageenan-induced rat paw edema test is hereinafter referred to as CPE).

[3] = ulcerogenic activity test (GI); settings: for TD50: in vivo
Excerpt: (The ulcerogenic ativity test is hereafter referred to as GI).

Compound	ED50 [1]	ED50 [2]	TD50 [3]	activity in the PQW test ([1]; result in words)	activity in the CPE test ([2]; result in words)	incidence of ulcers / ulcerogenic activity ([3]; result in words, test animals, very high dosage levels)
O=C(O)Cc1ccc2c(c1)C(=O)c1sccc1CO2 [Compound 1, reference compound]	4.5 mg/kg	3.4 mg/kg	33.7 mg/kg	–	–	–
CC(C)OC(=O)Cc1ccc2c(c1)C(=O)c1sccc1CO2 [Compound 2, reference compound]	13.7 mg/kg	1.6 mg/kg	21.6 mg/kg	–	–	–
O=C1c2cc(CCCCO)ccc2OCc2ccsc21 [Compound 3, 4-(4,10-Dihydro-10-oxothieno[3,2-c][1]benzoxepin-8-yl)butanol]	7.4 mg/kg	8.6 mg/kg	> 400 mg/kg	exhibit activity	exhibit activity	very low incidence of ulcers
